# No end group written: not given here.
# Experiments:
# [1] = Preliminary in vivo toxicity in mice
# Protocol: As a preliminary measurement of the in vivo cytotoxicity of the peptides 1, 2 and 3 (see Table 4) a group of three mice (BALB/c mice, 7 weeks old, about 23 g) were each injected with 92 μg L-type peptide 1 ( ˜4 mg/kg) in 200 μL PBS (spun 14,000 rpm for 3 minutes before injection). In the control group, each of three mice was given 200 μL PBS containing 5% DMSO. The mice were monitored for acute toxicity during the first 3 hours after injection.
# No change in appearance, activity or behavior was observed. The mice were then weighed on days 0, 3, 5, 7 and 10. Peptide-injected mice gained weight at the same rate as the controls.
# HCV [2] = assay: HCV focus reduction assay; assay type: cell-based, Hepatitis C virus (JFH-1); settings: for Inhibition of HCV infection: cell culture model of HCV infection; for Fold Inhibition: inhibition of HCV infection; for Fold Inhibition / % of Mock: peptide approximately 20 μM, Huh-7.5.1 cells, 3 days; for % of Mock: number of HCV foci as % of mock (0.5% DMSO); for Fold inhibition of HCV infection: peptide library screen, approximately 20 μM; for Focus Reduction (72 h): working concentration 18.4-27.5 μM per peptide, Mock 51
# Protocol: To identify peptides that display antiviral activity against HCV infection, the peptide library was screened by an HCV focus reduction assay. The peptides were constituted in 100% DMSO at a final concentration 10 mg/mL, and stored in −20° C. The peptide stock solution was diluted 1:200 to a final concentration approximately 20 μM in complete DMEM growth medium containing 50 focus forming units (ffu) of HCV. The virus-peptide mixture was transferred to Huh-7.5.1 cells at a density of 8000 cells per well in a 96-well plate. After adsorption for 4 hours at 37° C., the inoculum was removed. The cells were washed 2 times, overlaid with 120 μL fresh growth medium and incubated at 37° C. After 3 days of culture, the cells were fixed with paraformaldehyde and immunostained with antibody against HCV nonstructural protein NS5A. The numbers of HCV foci were counted under fluorescent microscopy and the result is expressed as percentage (%) of mock with no peptide treatment but containing solvent 0.5% DMSO.
# To determine whether the antiviral activity of peptide 1 is dependent on its primary amino acid sequence, four derivative peptides from peptide 1 were synthesized to a purity >95%. The four derivatives having the same composition of amino acids included (1) the reversed the sequence of peptide 1 (also called retro-peptide); (2) scrambled hydrophobic amino acids; (3) scrambled hydrophilic amino acids; and (4) a derivative in which the aspartic acid residues (D) were replaced with proline residues (P). The antiviral activity of the peptides was examined by HCV focus reduction assay at three peptide concentrations: 18 μM, 6 μM and 2 μM, as described above.
# HCV [3] = assay: Intracellular HCV RNA by real time RT-QPCR after infection of Huh-7.5.1 cells with and without peptide; assay type: cell-based, Hepatitis C virus (JFH-1); settings: for HCV RNA fold inhibition 24 h 25 μM / HCV RNA fold inhibition 72 h 25 μM: Huh-7.5.1 cells, MOI 0.1, normalized to GAPDH; for Fold Inhibition on HCV RNA (24 h) / Fold Inhibition on HCV RNA (72 h): working concentration 18.4-27.5 μM per peptide
# Protocol: To accurately quantify the inhibitory effect of the selected peptides on HCV infection, intracellular HCV RNA was measured after infection by real time RT-QPCR with and without peptide treatment. The peptide stock solution was diluted 1:100 and mixed with equal volume of viral supernatant (propagated from day 18 virus preparation post transfection) to a final concentration approximately 20 μM. The virus with peptide or 0.5% DMSO solvent control was then used to infect Huh-7.5.1 cells at a multiplicity of infection (MOI) of 0.1. After an adsorption for 4 hours at 37° C., the inoculum was removed. The cells were washed 2 times, overlaid with 120 μL fresh growth medium and incubated at 37° C. At the indicated time points, total cellular RNA was isolated by the guanidine thiocyanate method. The HCV RNA transcript level was measured by real time RT-QPCR with the primers 5′—
# normalized to cellular GAPDH levels.
# To define the antiviral action of peptide #1 (SEQ ID NO:43), the antiviral activity of a series of N-terminal and C-terminal truncations of peptide 1 was analyzed using the focus reduction assay and by measuring the reduction in intracellular HCV RNA as described.
# Dengue-2 = Dengue-2 infection of Vero cells, Intracellular FACS Assay; assay type: cell-based; settings: 20 μM, Vero cells 3 days post-infection; for % of Dead cells PI: propidium iodide staining
# Protocol: Intracellular FACS Assay: Vero cells were seeded for 24 h pre-infection in 6-well plates. Cells were exposed to Dengue-2 in the presence of increasing concentrations of peptide (or DMSO as control). Viruses and peptide were washed away 2 h post-infection. Cells were taken for intracellular staining 3 days post-infection. Cells were stained with appropriate isotype control, Dengue Env, Dengue capsid or tubulin antibodies. Cells were analyzed by FACS.
Compound,Inhibition of HCV infection (HCV [2]),Fold Inhibition (HCV [2]),% of Mock (HCV [2]),Fold inhibition of HCV infection (HCV [2]),HCV RNA fold inhibition 24 h 25 μM (HCV [3]),HCV RNA fold inhibition 72 h 25 μM (HCV [3]),Focus Reduction (72 h) (HCV [2]),Fold Inhibition on HCV RNA (24 h) (HCV [3]),Fold Inhibition on HCV RNA (72 h) (HCV [3]),also measured
CSCC[C@H](NC(=O)[C@H](CO)NC(=O)[C@H](CS)NC(=O)[C@H](CS)NC(=O)[C@@H](NC(=O)[C@@H](NC(=O)[C@H](CC(=O)O)NC(=O)[C@H](CCC(=O)O)NC(=O)[C@@H](NC(=O)[C@H](CC(=O)O)NC(=O)[C@H](C)NC(=O)CNC(=O)[C@H](CO)NC(=O)[C@@H](N)CO)[C@@H](C)O)C(C)C)C(C)C)C(=O)N[C@@H](CO)C(=O)N[C@@H](Cc1ccc(O)cc1)C(=O)N[C@@H](CO)C(=O)N[C@@H](Cc1c[nH]c2ccccc12)C(=O)O [Peptide 3],–,–,–,–,–,–,–,–,–,"In vivo toxicity observation ([1]; 92 μg ( ˜4 mg/kg) in 200 μL PBS, acute toxicity first 3 hours, weight to day 10): Peptides 1, 2 and 3 are Nontoxic in C57BL/6 Mice; Weight(g) (d.0) ([1]; day 0, ˜4 mg/kg injected): 24.1 g; Weight(g) (d.3) ([1]; day 3): 24.1 g; Weight(g) (d.5) ([1]; day 5): 24.7 g; Weight(g) (d.7) ([1]; day 7): 24.7 g; Weight(g) (d.10) ([1]; day 10): 24.7 g"
ALYVGDLCGSVFLVGQLF [Peptide 7],strongly inhibit HCV infection,100.0 fold,1.0%,more than ten-fold,20 fold,11 fold,–,–,–,–
ATQTFLATCINGVCWTVY [Peptide 12],strongly inhibit HCV infection,42.0 fold,2.4%,more than ten-fold,8 fold,5 fold,–,–,–,–
CEVLSDFK [^N-8mer],–,–,–,–,–,–,53,1.1 fold,0.7 fold,–
DIWDWICEVLSDFK [^N-14mer],–,–,–,–,–,–,–,–,–,% of Dead cells PI (Dengue-2): 0.76%
DWICEVLSDFKTWLKAKL [Peptide 13],strongly inhibit HCV infection,42.0 fold,2.4%,more than ten-fold,7 fold,2 fold,–,–,–,–
GSATLCSALYVGDLCGSV [Peptide 5],strongly inhibit HCV infection,100.0 fold,1.0%,more than ten-fold,26 fold,27 fold,–,–,–,–
IFLLALLSCLTVPASAYQ [Peptide 8],strongly inhibit HCV infection,42.0 fold,2.4%,more than ten-fold,18 fold,7 fold,–,–,–,–
IMDMIAGAHWGVLAGIAY [Peptide 9],strongly inhibit HCV infection,42.0 fold,2.4%,more than ten-fold,10 fold,22 fold,–,–,–,–
LYGNEGCGWAGWLLSPRG [Peptide 10],–,–,–,–,–,–,–,–,–,% of Dead cells PI (Dengue-2): 4.05%
SWLRDIWD [^C-8mer],–,–,–,–,–,–,58,1.3 fold,1.0 fold,–
SWLRDIWDWI [^C-10mer],–,–,–,–,–,–,65,0.8 fold,0.6 fold,"% GATED, Dengue α-Capsid (9A7) (Dengue-2; DMSO 41.26): 37.21%; % of Dead cells PI (Dengue-2): 1.2%"
SWLRDIWDWICE [^C-12mer],–,–,–,–,–,–,107,0.8 fold,0.5 fold,–
SWLRDIWDWICEV [^C-13mer],–,–,–,–,–,–,–,–,–,% of Dead cells PI (Dengue-2): 3.04%
SWLRDIWDWICEVLSD [^C-16mer],–,–,–,–,–,–,0,9852.6 fold,234207.1 fold,–
TLVFDITKLLLAIFGPLW [Peptide 6],strongly inhibit HCV infection,100.0 fold,1.0%,more than ten-fold,24 fold,16 fold,–,–,–,–
WDWICEVLSDFK [^N-12mer],–,–,–,–,–,–,38,2.2 fold,1.4 fold,–
WICEVLSDFK [^N-10mer],–,–,–,–,–,–,45,1.1 fold,1.0 fold,–
WMMLLISQAEAALENLVI [Peptide 4],strongly inhibit HCV infection,21.0 fold,4.8%,more than ten-fold,27 fold,40 fold,–,–,–,–
YLYGVGSSIASWAIKWEY [Peptide 11],strongly inhibit HCV infection,42.0 fold,2.4%,more than ten-fold,9 fold,7 fold,–,–,–,–

# From US20070073039A1, “Peptides that inhibit viral infections” (priority 2005, published 2007)
